Here are results for nine compounds from ChEMBL document CHEMBL3826902, “Synthesis and cytotoxic activities of semisynthetic zearalenone analogues” (Bioorg Med Chem Lett, 2016).

The IC50 is the concentration needed to halve the response being measured.

Active and inactive are the calls of the source. The rule behind the calls is not given here.

Data set [1] has as its system KB. In words: Cytotoxicity against human KB cells assessed as reduction in cell viability at >50 ug/ml by resazurin microplate assay. It is filed as functional, cell-based. A general note: The colour change of resazurin is a common sign of viable cells or microbes.
Data set [2] concerns MCF7. In words: Cytotoxicity against human MCF7 cells assessed as reduction in cell viability at >50 ug/ml by resazurin microplate assay. It is filed as functional, cell-based.
Data set [3] concerns Vero. Briefly: Cytotoxicity against African green monkey Vero cells assessed as reduction in cell viability by green fluorescent protein-based assay. Also noted: species or system Chlorocebus sabaeus.
The test system of data set [4] is KB. In words: Cytotoxicity against human KB cells assessed as reduction in cell viability by resazurin microplate assay. The data set is classed as functional, cell-based.
The test system of data set [5] is Vero. In words: Cytotoxicity against African green monkey Vero cells assessed as reduction in cell viability at >50 ug/ml by green fluorescent protein-based assay. Conditions: Chlorocebus sabaeus.
For data set [6], the system named is MCF7. In words: Cytotoxicity against human MCF7 cells assessed as reduction in cell viability by resazurin microplate assay. It is filed as functional, cell-based.
A short description of data set [7]: Cytotoxicity against human HL60 cells assessed as reduction in cell viability after 24 hrs by MTT assay. Particulars: HL-60, 24 h. It is filed as functional, cell-based. (In general: Tetrazolium dyes change colour on reduction, which living cells bring about.)

In the case of `COc1cc(O)c2c(c1)CCCCCC(=O)CCC[C@H](C)OC2=O`, the result in the data set on KB [1] and with MCF7 [2] was inactive. In addition, the IC50 entry in the data set on Vero [3] (vero), in the data set on KB [4] (kb) and in the data set on MCF7 [6] (mcf7) was “Not Active” in each case. Besides, the Activity entry in the data set on Vero [5] is given as “Non-toxic”.

Regarding `COc1cc2c(c(OC)c1)C(=O)O[C@@H](C)CCCC(=O)CCCCC2`, the outcome with KB [1] and in the data set with MCF7 [2] was inactive. Also, the 50% inhibitory concentration (IC50) entry with Vero [3] (vero), in the data set on KB [4] (kb) and in the data set with MCF7 [6] (mcf7) was “Not Active” each time. In addition, in the data set with Vero [5], the Activity entry is recorded as “Non-toxic”.

Regarding `COc1cc2c(c(OC)c1)C(=O)O[C@@H](C)CCC[C@H](O)CCCCC2`, the outcome in the data set with KB [1] and with MCF7 [2] was inactive. Further, the IC50 entry with Vero [3] (vero), with KB [4] (kb) and with MCF7 [6] (mcf7) was “Not Active” throughout. Also, the Activity entry in the data set with Vero [5] is recorded as “Non-toxic”.

With `COc1cc2c(c(OC)c1)C(=O)O[C@@H](C)CCC[C@@H](O)CCC/C=C/2`, the result in the data set with KB [1] and in the data set with MCF7 [2] was inactive. In addition, the IC50 result with Vero [3] (vero), in the data set on KB [4] (kb) and with MCF7 [6] (mcf7) was “Not Active” in each case. Further, the Activity entry in the data set on Vero [5] is listed as “Non-toxic”.

On to `CCC(=O)Oc1cc2c(c(OC(=O)CC)c1)C(=O)O[C@@H](C)CCCC(=O)CCC/C=C/2`, for which the result in the data set on KB [1] and with MCF7 [2] was inactive. In addition, the IC50 result in the data set with Vero [3] (vero), in the data set with KB [4] (kb) and with MCF7 [6] (mcf7) was “Not Active” in each case. Also, the Activity result with Vero [5] is on record as “Non-toxic”.

For the compound `COc1cc2c(c(OC)c1)C(=O)O[C@@H](C)CCC[C@H](O)CCC/C=C/2`, the outcome in the data set with KB [1] and with MCF7 [2] was inactive. Besides, the IC50 entry in the data set on Vero [3] (vero), with KB [4] (kb) and in the data set with MCF7 [6] (mcf7) was “Not Active” each time. Moreover, the Activity entry with Vero [5] is recorded as “Non-toxic”.

Turning to `COc1cc2c(c(OC)c1)C(=O)O[C@@H](C)CCC[C@@H](O)CCCCC2`, the outcome in the data set with KB [1] and with MCF7 [2] was inactive. Also, the IC50 entry in the data set with Vero [3] (vero), with KB [4] (kb) and in the data set with MCF7 [6] (mcf7) was “Not Active” throughout. In addition, the Activity entry with Vero [5] was “Non-toxic”.

For the compound `C[C@H]1CCCC(=O)CCC/C=C/c2cc(O)cc(O)c2C(=O)O1` [ZEARALENONE], the IC50 was found to be 40.6 µM in the data set with Vero [3] (Chlorocebus sabaeus, Vero, read-out: IC50); 46.3 µM in the data set on KB [4] (Homo sapiens, KB, read-out: IC50); 138 µM in data set [7]; 105 µM in the data set on MCF7 [6] (Homo sapiens, MCF7, read-out: IC50).

On to `COc1cc(O)c2c(c1)/C=C/CCCC(=O)CCC[C@H](C)OC2=O`, for which the outcome in the data set with KB [1] and with MCF7 [2] was inactive. The IC50 result with Vero [3] (vero), in the data set on KB [4] (kb) and in the data set with MCF7 [6] (mcf7) was “Not Active” in each case. Besides, the Activity entry in the data set with Vero [5] is reported as “Non-toxic”.
